Source: ChEMBL document CHEMBL1201862, “PubChem BioAssay data set” (2004)
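Step 1: Grow cells in 96-well plates. Step 2: Expose to compound for 48 hours at 5 concentrations. Step 3: Interpolate endpoints linearly; if unreached, use highest concentration. GI50: concentration for 50% inhibition of growth.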 Activity calls are given as the source filed them. No stated cut-off is given here; in the data, active = GI50 up to about 1.1 µM and inactive = higher.

How the values were obtained:
Assay in all cases: DTP human tumour cell line panel, 48 h
[1] = system: HCT-15
[2] = system: NCI-H522
[3] = system: OVCAR-8
[4] = system: HL-60
[5] = system: A498
[6] = system: CAKI-1
[7] = system: HOP-92
[8] = system: HCT-116
[9] = system: UACC-257
[10] = system: TK-10
[11] = system: SN12C
[12] = system: HT-29
[13] = system: SF-539
[14] = system: IGROV-1
[15] = system: DLD-1
[16] = system: A549
[17] = system: EKVX
[18] = system: SF-295
[19] = system: UO-31
[20] = system: RXF 393
[21] = system: U-251
[22] = system: XF498
[23] = system: SNB-78
[24] = system: SF-268
[25] = system: OVCAR-4
[26] = system: COLO 205
[27] = system: M14
[28] = system: NCI-H460
[29] = system: M19-MEL
[30] = system: OVCAR-3
[31] = system: SW-620
[32] = system: SK-MEL-5
[33] = system: NCI-H23
[34] = system: MOLT-4
[35] = system: SK-MEL-2
[36] = system: HOP-18
[37] = system: HOP-62
[38] = system: K562
[39] = system: DMS-273
[40] = system: KM12
[41] = system: HCC 2998
[42] = system: SNB-19
[43] = system: OVCAR-5
[44] = system: SK-MEL-28
[45] = system: RPMI-8226
[46] = system: Malme-3M
[47] = system: LXFL 529
[48] = system: LOX IMVI
[49] = system: DMS-114
[50] = system: NCI-H226
[51] = system: CCRF-CEM
[52] = system: SK-OV-3
[53] = system: ACHN
[54] = system: SNB-75
[55] = system: KM-20L2
[56] = system: 786-0
[57] = system: UACC-62
[58] = system: SR
[59] = system: MDA-MB-435
[60] = system: MDA-N
[61] = system: Hs-578T
[62] = system: MCF7
[63] = system: PC-3
[64] = system: T47D
[65] = system: MDA-MB-231
[66] = system: BT-549
[67] = system: DU-145
[68] = system: NCI/ADR-RES

CC12CCc3ccccc3C1=NNC(=O)C2 (stereo not given)
GI50 [1]: > 100 µM
GI50 [2]: > 100 µM (inactive)
GI50 [3]: > 100 µM (inactive)
GI50 [4]: 82 µM (inactive)
GI50 [5]: > 100 µM (inactive)
GI50 [6]: > 100 µM (inactive)
GI50 [7]: > 100 µM (inactive)
GI50 [8]: > 100 µM (inactive)
GI50 [9]: > 100 µM (inactive)
GI50 [10]: > 100 µM (inactive)
GI50 [11]: > 100 µM (inactive)
GI50 [12]: > 100 µM (inactive)
GI50 [13]: > 100 µM (inactive)
GI50 [14]: > 100 µM (inactive)
GI50 [15]: > 100 µM (inactive)
GI50 [16]: > 100 µM (inactive)
GI50 [17]: > 100 µM (inactive)
GI50 [18]: > 100 µM (inactive)
GI50 [19]: > 100 µM (inactive)
GI50 [20]: > 100 µM (inactive)
GI50 [21]: > 100 µM (inactive)
GI50 [22]: > 100 µM (inactive)
GI50 [23]: > 100 µM (inactive)
GI50 [24]: > 100 µM (inactive)
GI50 [25]: > 100 µM (inactive)
GI50 [26]: > 100 µM (inactive)
GI50 [27]: > 100 µM (inactive)
GI50 [28]: > 100 µM (inactive)
GI50 [29]: > 100 µM (inactive)
GI50 [30]: > 100 µM (inactive)
GI50 [31]: > 100 µM (inactive)
GI50 [32]: > 100 µM (inactive)
GI50 [33]: > 100 µM (inactive)
GI50 [34]: > 100 µM (inactive)
GI50 [35]: > 100 µM (inactive)
GI50 [36]: > 100 µM (inactive)
GI50 [37]: > 100 µM (inactive)
GI50 [38]: > 100 µM (inactive)
GI50 [39]: > 100 µM (inactive)
GI50 [40]: > 100 µM (inactive)
GI50 [41]: > 100 µM (inactive)
GI50 [42]: > 100 µM (inactive)
GI50 [43]: > 100 µM (inactive)
GI50 [44]: > 100 µM (inactive)
GI50 [45]: > 100 µM (inactive)
GI50 [46]: > 100 µM (inactive)
GI50 [47]: > 100 µM (inactive)
GI50 [48]: > 100 µM (inactive)
GI50 [49]: > 100 µM (inactive)
GI50 [50]: > 100 µM (inactive)
GI50 [51]: > 100 µM (inactive)
GI50 [52]: > 100 µM (inactive)
GI50 [53]: > 100 µM (inactive)
GI50 [54]: > 100 µM (inactive)
GI50 [55]: > 100 µM (inactive)
GI50 [56]: > 100 µM (inactive)

O=C1C2Nc3ccccc3SC2C(=O)N1c1ccccc1C(F)(F)F (stereo not given)
GI50 [1]: 15.9 µM
GI50 [2]: 15.3 µM (inactive)
GI50 [3]: 33.7 µM (inactive)
GI50 [4]: 5.19 µM (inactive)
GI50 [6]: 24.9 µM (inactive)
GI50 [7]: 25 µM (inactive)
GI50 [8]: 24.5 µM (inactive)
GI50 [9]: > 100 µM (inactive)
GI50 [10]: 42.1 µM (inactive)
GI50 [11]: 27.2 µM (inactive)
GI50 [12]: 26.4 µM (inactive)
GI50 [13]: 17.8 µM (inactive)
GI50 [14]: 54.1 µM (inactive)
GI50 [15]: 27.3 µM (inactive)
GI50 [16]: 20.2 µM (inactive)
GI50 [17]: 54.8 µM (inactive)
GI50 [18]: 14.9 µM (inactive)
GI50 [19]: 38.2 µM (inactive)
GI50 [20]: 7.45 µM (inactive)
GI50 [21]: 19.1 µM (inactive)
GI50 [22]: 19.6 µM (inactive)
GI50 [23]: 15.2 µM (inactive)
GI50 [24]: 41.1 µM (inactive)
GI50 [25]: 43.1 µM (inactive)
GI50 [27]: 16 µM (inactive)
GI50 [28]: 32.7 µM (inactive)
GI50 [29]: 46.9 µM (inactive)
GI50 [30]: 22.3 µM (inactive)
GI50 [31]: 21.4 µM (inactive)
GI50 [32]: 12 µM (inactive)
GI50 [33]: 24 µM (inactive)
GI50 [34]: 23.2 µM (inactive)
GI50 [35]: 27.2 µM (inactive)
GI50 [36]: 26.4 µM (inactive)
GI50 [37]: 25.4 µM (inactive)
GI50 [38]: 3.99 µM (inactive)
GI50 [57]: 19 µM (inactive)
GI50 [40]: 10.1 µM (inactive)
GI50 [41]: 16.7 µM (inactive)
GI50 [58]: 32.7 µM (inactive)
GI50 [42]: 18.1 µM (inactive)
GI50 [43]: > 100 µM (inactive)
GI50 [44]: 51.9 µM (inactive)
GI50 [45]: 29 µM (inactive)
GI50 [46]: 19.7 µM (inactive)
GI50 [47]: 33.7 µM (inactive)
GI50 [48]: 40.2 µM (inactive)
GI50 [49]: 40.7 µM (inactive)
GI50 [50]: 43.1 µM (inactive)
GI50 [51]: 15.2 µM (inactive)
GI50 [52]: 23.7 µM (inactive)
GI50 [53]: 40.3 µM (inactive)
GI50 [56]: 25.2 µM (inactive)

O=c1c2ccc(Br)cc2nc(-c2ccccc2)n1NC1OC(CO)C(O)C(O)C1O (stereo not given)
GI50 [1]: > 100 µM
GI50 [2]: > 100 µM (inactive)
GI50 [3]: > 100 µM (inactive)
GI50 [4]: > 100 µM (inactive)
GI50 [5]: > 100 µM (inactive)
GI50 [6]: > 100 µM (inactive)
GI50 [7]: > 100 µM (inactive)
GI50 [8]: > 100 µM (inactive)
GI50 [9]: > 100 µM (inactive)
GI50 [10]: > 100 µM (inactive)
GI50 [11]: > 100 µM (inactive)
GI50 [12]: > 100 µM (inactive)
GI50 [13]: > 100 µM (inactive)
GI50 [14]: > 100 µM (inactive)
GI50 [16]: > 100 µM (inactive)
GI50 [17]: > 100 µM (inactive)
GI50 [18]: > 100 µM (inactive)
GI50 [19]: > 100 µM (inactive)
GI50 [21]: > 100 µM (inactive)
GI50 [22]: > 100 µM (inactive)
GI50 [23]: > 100 µM (inactive)
GI50 [24]: > 100 µM (inactive)
GI50 [25]: > 100 µM (inactive)
GI50 [26]: > 100 µM (inactive)
GI50 [27]: > 100 µM (inactive)
GI50 [28]: > 100 µM (inactive)
GI50 [29]: > 100 µM (inactive)
GI50 [30]: > 100 µM (inactive)
GI50 [31]: > 100 µM (inactive)
GI50 [32]: > 100 µM (inactive)
GI50 [33]: > 100 µM (inactive)
GI50 [34]: 57.3 µM (inactive)
GI50 [35]: > 100 µM (inactive)
GI50 [36]: > 100 µM (inactive)
GI50 [37]: 59.3 µM (inactive)
GI50 [38]: > 100 µM (inactive)
GI50 [39]: > 100 µM (inactive)
GI50 [57]: > 100 µM (inactive)
GI50 [40]: > 100 µM (inactive)
GI50 [41]: > 100 µM (inactive)
GI50 [42]: > 100 µM (inactive)
GI50 [43]: > 100 µM (inactive)
GI50 [44]: > 100 µM (inactive)
GI50 [45]: > 100 µM (inactive)
GI50 [46]: > 100 µM (inactive)
GI50 [47]: > 100 µM (inactive)
GI50 [49]: > 100 µM (inactive)
GI50 [50]: > 100 µM (inactive)
GI50 [51]: 72.9 µM (inactive)
GI50 [52]: > 100 µM (inactive)
GI50 [53]: > 100 µM (inactive)
GI50 [54]: > 100 µM (inactive)
GI50 [55]: > 100 µM (inactive)
GI50 [56]: > 100 µM (inactive)

O=C[C@@H](CO)O[C@H](C=O)c1c[nH]c(=O)[nH]c1=O
GI50 [1]: 57.8 µM
GI50 [2]: 70.1 µM (inactive)
GI50 [3]: 66.1 µM (inactive)
GI50 [4]: 22.3 µM (inactive)
GI50 [5]: 119 µM (inactive)
GI50 [6]: 71.6 µM (inactive)
GI50 [7]: 81.1 µM (inactive)
GI50 [8]: 84.5 µM (inactive)
GI50 [9]: 104 µM (inactive)
GI50 [59]: 49.4 µM (inactive)
GI50 [10]: 104 µM (inactive)
GI50 [11]: 83 µM (inactive)
GI50 [12]: 107 µM (inactive)
GI50 [13]: 101 µM (inactive)
GI50 [14]: 81.1 µM (inactive)
GI50 [15]: 75 µM (inactive)
GI50 [16]: 192 µM (inactive)
GI50 [17]: 75.7 µM (inactive)
GI50 [18]: 146 µM (inactive)
GI50 [19]: 88.5 µM (inactive)
GI50 [60]: 70.8 µM (inactive)
GI50 [20]: 54.8 µM (inactive)
GI50 [21]: 143 µM (inactive)
GI50 [22]: 24.7 µM (inactive)
GI50 [23]: 133 µM (inactive)
GI50 [24]: 102 µM (inactive)
GI50 [25]: 83.9 µM (inactive)
GI50 [26]: 77.1 µM (inactive)
GI50 [27]: 126 µM (inactive)
GI50 [28]: 105 µM (inactive)
GI50 [29]: 104 µM (inactive)
GI50 [30]: 68.4 µM (inactive)
GI50 [61]: 100 µM (inactive)
GI50 [31]: 62.8 µM (inactive)
GI50 [62]: 45.2 µM (inactive)
GI50 [32]: 83.9 µM (inactive)
GI50 [33]: 69.3 µM (inactive)
GI50 [63]: 89.1 µM (inactive)
GI50 [34]: 47.8 µM (inactive)
GI50 [64]: 73.6 µM (inactive)
GI50 [35]: 100 µM (inactive)
GI50 [36]: 95.1 µM (inactive)
GI50 [37]: 59 µM (inactive)
GI50 [38]: 66.1 µM (inactive)
GI50 [39]: > 81.5 µM (inactive)
GI50 [65]: 74.1 µM (inactive)
GI50 [57]: 72.8 µM (inactive)
GI50 [40]: 93.3 µM (inactive)
GI50 [41]: 98.4 µM (inactive)
GI50 [58]: 35.6 µM (inactive)
GI50 [42]: 129 µM (inactive)
GI50 [43]: 131 µM (inactive)
GI50 [44]: 85.7 µM (inactive)
GI50 [66]: 79.1 µM (inactive)
GI50 [45]: 53.8 µM (inactive)
GI50 [46]: 88.7 µM (inactive)
GI50 [67]: 100 µM (inactive)
GI50 [48]: 93.8 µM (inactive)
GI50 [49]: 37.6 µM (inactive)
GI50 [50]: 101 µM (inactive)
GI50 [68]: 103 µM (inactive)
GI50 [51]: 34.9 µM (inactive)
GI50 [52]: 112 µM (inactive)
GI50 [53]: 81.1 µM (inactive)
GI50 [54]: 182 µM (inactive)
GI50 [55]: 84.3 µM (inactive)
GI50 [56]: 128 µM (inactive)
